Source: BindingDB's records for doi:10.1016/s0960-894x(02)00699-6 (Sapienza University of Rome, 2002)

Target: Diamine oxidase [copper-containing] (Sus scrofa)
Experiment: Inhibitory activity against Swine kidney diamine oxidase (SKDAO)

Row | Compound | Ki [µM]
1 | CC(=O)N1N=C(c2ccc(O)cc2O)CC1c1cccc(C)c1 (centres undefined) [1-[3-(2,4-Dihydroxy-phenyl)-5-m-tolyl-4,5-dihydro-pyrazol-1-yl]-ethanone] | 25
2 | CC(=O)N1N=C(c2ccc(O)cc2O)CC1c1ccccc1C (centres undefined) [1-[3-(2,4-Dihydroxy-phenyl)-5-o-tolyl-4,5-dihydro-pyrazol-1-yl]-ethanone] | 100
3 | CC(=O)N1N=C(c2ccccc2O)CC1c1cccc(C)c1 (centres undefined) [1-[3-(2-Hydroxy-phenyl)-5-m-tolyl-4,5-dihydro-pyrazol-1-yl]-ethanone] | 8
4 | CC(=O)N1N=C(c2ccccc2O)CC1c1ccccc1C (centres undefined) [1-[3-(2-Hydroxy-phenyl)-5-o-tolyl-4,5-dihydro-pyrazol-1-yl]-ethanone] | 5.5
